The target in experiment [1] is T1, angiotensin II (A-II) receptor (Bos taurus, UniProt P25104).
T1 construct: An A-II receptor membrane fraction was prepared from bovine adrenal cortex; from tissue; host or cells: bovine adrenal cortex membrane fraction
T1 sequence (P25104 1-359): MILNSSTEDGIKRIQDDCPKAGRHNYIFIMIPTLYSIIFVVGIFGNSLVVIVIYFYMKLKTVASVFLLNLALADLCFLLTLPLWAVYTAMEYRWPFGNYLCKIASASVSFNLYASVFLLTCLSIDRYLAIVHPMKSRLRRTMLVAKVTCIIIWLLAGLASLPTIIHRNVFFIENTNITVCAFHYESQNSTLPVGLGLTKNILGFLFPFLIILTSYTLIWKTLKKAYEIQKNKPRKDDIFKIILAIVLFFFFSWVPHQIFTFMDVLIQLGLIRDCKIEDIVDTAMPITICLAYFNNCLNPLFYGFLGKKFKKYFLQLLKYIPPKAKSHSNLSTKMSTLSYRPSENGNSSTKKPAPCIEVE
In words: Inhibitory Effect of Binding of Angiotensin-II to Angiotensin Receptor (radioreceptor assay, 125I-AII, adrenal cortex membrane fraction). The conditions noted are these: bovine adrenal cortex membrane, room temperature, one hour. As to the method: Inhibitory Effect of Binding of Angiotensin-II to Angiotensin Receptor
An A-II receptor membrane fraction was prepared from bovine adrenal cortex.

Experiment [2] deals with A-II-induced pressor action. The experiment in a line: Inhibitory Effect of the Compound of the Present Invention on Pressor Action of AII (p.o.). Format: in vivo, rat (Jcl: SD). The conditions noted are these: rat, AII 100 ng/kg i.v.; for inhibition in vivo at 1 mg/kg / inhibition in vivo at 3 mg/kg: po, read-out: Pressor Response to A II (p.o.), percent inhibition class; for inhibition in vivo at 3 mg/kg: 3 mg/kg p.o. The source says: Inhibitory Effect of the Compound of the Present Invention on Pressor Action of AII
Jcl: SD rat (9 week old, male) were employed. On the day prior to the experiment, these animals were applied with cannulation into the femoral artery and vein under anesthesia with pentobarbital Na. These animals were fasted but allowed to free access to drinking water until the experiment was started. Just on the day of conducting the experiment, the artery cannula was connected with a blood-pressure transducer, and the average blood pressure was recorded by means of polygraph. Before administration of the drug, the pressor action due to intravenous administration of AII (100 ng/kg) as the control was determined. The drugs were orally administered, then, at each point of the determination, A-II was administered intravenously, and the pressor action was similarly determined. By comparing the pressor action before and after administration of the drug, the percent inhibition by the drug on A-II-induced pressor action was evaluated.

For experiment [3] the following is noted: reported in literature; cited from earlier work.

For the molecule `COC(=O)c1cccc2nc(C3CC3)n(Cc3ccc(-c4ccccc4-c4nc(=O)o[nH]4)cc3)c12` [Example 32c, Methyl 2-cyclopropyl-1-[[2'-(2,5-dihydro-5-oxo-1,2,4-oxadiazol-3-yl)biphenyl-4-yl]methyl]-benzimidazole-7-carboxylate], the inhibition (usually how much of the control response was suppressed) at 1 µM in experiment [1] (10^-6 M) was determined as 79%. Further, the inhibition at 0.1 µM in experiment [1] (10^-7 M) was 40%. In experiment [2] (1 mg/kg p.o.), the inhibition in vivo at 1 mg/kg is over 70%.

As to “Acetoxymethyl 1-[[2'-(4-acetoxymethyl-4,5-dihdyro-5-oxo-4H-1,2,4-oxadiazol-3-yl)biphenyl-4-yl]methyl]-2-ethoxybenzimidazole-7-carboxylate [Example 13]”, the “Radioreceptor assay % inhibition” value in experiment [1] (10^-6 M) is 69%; in experiment [1] (10^-7 M) it was 31%. For the same molecule, in experiment [2] (1 mg/kg p.o.), the “Pressor Response to A II (p.o.), percent inhibition class” value is reported as “+++ (+++ ≥ 70%)”.

Turning to `CCCCc1nc2cccc(C(=O)O)c2n1Cc1ccc(-c2ccccc2-c2noc(=O)[nH]2)cc1` [Example 33, 2-Butyl-1-[[2'-(2,5-dihydro-5-oxo-1,2,4-oxadiazol-3-yl)-biphenyl-4-yl]methyl]benzimidazole-7-carboxylic acid], the inhibition at 1 µM in experiment [1] (10^-6 M) came out at 70%. In experiment [1] (10^-7 M), 0.1 µM produced 23% inhibition. The inhibition in vivo at 1 mg/kg in experiment [2] (1 mg/kg p.o.) was 50 to 70%.

Regarding `CCOc1nc2cccc(C(=O)OC)c2n1Cc1ccc(-c2ccccc2C2=NOS(=O)N2)cc1` (centres unmarked) [Example 3, Methyl 2-ethoxy-1-[[2'-(2-oxo-3H-1,2,3,5-oxathiadiazol-4-yl)biphenyl]methyl]benzimidazole-7-carboxylate], testing at 1 µM in experiment [1] (10^-6 M) gave an inhibition of 75%. In experiment [1] (10^-7 M), the inhibition at 0.1 µM was 33%. For the same molecule, in experiment [2], the inhibition in vivo at 3 mg/kg is over 70%.

Turning to `COc1nc2c(C)sc(C(=O)O)c2n1Cc1ccc(-c2ccccc2-c2nc(=O)o[nH]2)cc1` [Example 9, 2-Methoxy-1-[[2'-(2,5-dihydro-5-oxo-1,2,4-oxadiazol-3-yl)biphenyl-4-yl]methyl]-4-methylthieno[3,4-d]imidazole-6-carboxylic Acid], in experiment [1] (10^-6 M), 1 µM produced 55% inhibition. Besides, in experiment [1] (10^-7 M), the inhibition at 0.1 µM was found to be 19%. The inhibition in vivo at 1 mg/kg in experiment [2] (1 mg/kg p.o.) is over 70%. Besides, the inhibition in vivo at 3 mg/kg in experiment [2] is over 70%.

In experiment [1] (10^-6 M), `CCSc1nc2c(C)sc(C(=O)O)c2n1Cc1ccc(-c2ccccc2-c2noc(=O)[nH]2)cc1` [Example 8, 2-Ethylthio-1-[[2'-(2,5-dihydro-5-oxo-1,2,4-oxadiazol-3-yl)biphenyl-4-yl]methyl]-4-methylthieno[3,4-d]imidazole-6-carboxylic Acid] returned an inhibition at 1 µM of 40%. Besides, the inhibition at 0.1 µM in experiment [1] (10^-7 M) stood at 8%. Further, the inhibition in vivo at 1 mg/kg in experiment [2] (1 mg/kg p.o.) is over 70%.

Molecule `CCOc1nc2cccc(C(=O)OC)c2n1Cc1ccc(-c2ccccc2-c2nc(=O)s[nH]2)cc1` [Example 60, Methyl 2-ethoxy-1-[[2'-(2,5-dihydro-5-oxo-1,2,4-thiadiazol-3-yl)biphenyl-4-yl]methyl]benzimidazole-7-carboxylate] yielded an inhibition at 1 µM in experiment [1] (10^-6 M) of 84%. 0.1 µM produced 43% inhibition in experiment [1] (10^-7 M). The inhibition in vivo at 1 mg/kg in experiment [2] (1 mg/kg p.o.) is over 70%.

In experiment [1] (10^-6 M), `CCOc1nc2c(C)sc(C(=O)O)c2n1Cc1ccc(-c2ccccc2-c2nc(=O)o[nH]2)cc1` [Example 10, 2-Ethoxy-1-[[2'-(2,5-dihydro-5-oxo-1,2,4-oxadiazol-3-yl)biphenyl-4-yl]methyl]-4-methylthieno[3,4-d]imidazole-6-carboxylic Acid] had an inhibition at 1 µM of 51%. In experiment [1] (10^-7 M), this molecule returned an inhibition at 0.1 µM of 17%. Besides, in experiment [2] (1 mg/kg p.o.), the inhibition in vivo at 1 mg/kg was over 70%.

`CCc1nc2cccc(C(=O)O)c2n1Cc1ccc(-c2ccccc2-c2nc(=O)o[nH]2)cc1` [Example 31, 2-Ethyl-1-[[2'-(2,5-dihydro-5-oxo-1,2,4-oxadiazol-3-yl)-biphenyl-4-yl]methyl]benzimidazole-7-carboxylic Acid] returned an inhibition at 1 µM in experiment [1] (10^-6 M) of 79%. In experiment [1] (10^-7 M), this molecule came in with an inhibition at 0.1 µM of 41%. Moreover, in experiment [2] (1 mg/kg p.o.), the inhibition in vivo at 1 mg/kg is over 70%.

`CCc1nc2c(C)cc(C(=O)O)nc2n1Cc1ccc(-c2ccccc2-c2nc(=O)o[nH]2)cc1` [Example 56, 2-Ethyl-3-[[2'-(2,5-dihydro-5-oxo-1,2,4-oxadiazol-3-yl)biphenyl-4-yl]methyl]-7-methylimidazo[4,5-b]pyridine-5-carboxylic acid] gave an inhibition at 1 µM in experiment [1] (10^-6 M) of 94%. For the same molecule, in experiment [1] (10^-7 M), the inhibition at 0.1 µM worked out at 80%. Besides, the inhibition in vivo at 1 mg/kg in experiment [2] (1 mg/kg p.o.) was over 70%.

As to `CCOc1nc2cccc(C(=O)O)c2n1Cc1ccc(-c2ccccc2-c2nc(=O)o[nH]2)cc1` [Example 1, 2-Ethoxy-1-[[2'-(2,5-dihydro-5-oxo-1,2,4-oxadiazol-3-yl)biphenyl-4-yl]methyl]benzimidazole-7-carboxylic Acid], in experiment [1] (10^-6 M), the inhibition at 1 µM is 79%. In experiment [1] (10^-7 M), this molecule gave an inhibition at 0.1 µM of 34%. Also, the inhibition in vivo at 1 mg/kg in experiment [2] (1 mg/kg p.o.) is over 70%. Moreover, the inhibition in vivo at 3 mg/kg in experiment [2] is over 70%.

With `O=C(O)c1cccc2nc(C3CC3)n(Cc3ccc(-c4ccccc4-c4noc(=O)[nH]4)cc3)c12` [Example 32, 2-Cyclopropyl-1-[[2'-(2,5-dihydro-5-oxo-1,2,4-oxadiazol-3-yl)biphenyl-4-yl]methyl]benzimidazole-7-carboxylic acid], testing at 1 µM in experiment [1] (10^-6 M) gave an inhibition of 75%. This molecule yielded an inhibition at 0.1 µM in experiment [1] (10^-7 M) of 27%. Moreover, the inhibition in vivo at 1 mg/kg in experiment [2] (1 mg/kg p.o.) is over 70%.

In turn, `CCOc1nc2cccc(C(=O)OC(C)OC(=O)OC3CCCCC3)c2n1Cc1ccc(-c2ccccc2-c2nc(=O)o[nH]2)cc1` (centres unmarked) [Example 4, 1-(Cyclohexyloxycarbonyloxy)ethyl 2-ethoxy-1-[[2'-(2,5-dihydro-5-oxo-1,2,4-oxadiazol-3-yl)biphenyl-4-yl]methyl]benzimidazole-7-carboxylate] had an inhibition at 1 µM in experiment [1] (10^-6 M) of 44%. The inhibition at 0.1 µM in experiment [1] (10^-7 M) came out at 17%. In experiment [2] (1 mg/kg p.o.), the inhibition in vivo at 1 mg/kg is over 70%.

`CCNc1nc2c(C)sc(C(=O)O)c2n1Cc1ccc(-c2ccccc2-c2nc(=O)o[nH]2)cc1` [Example 12, 2-Ethylamino-1-[[2'-(2,5-dihydro-5-oxo-1,2,4-oxadiazol-3-yl)biphenyl-4-yl]methyl]-4-methylthieno[3,4-d]imidazole-6-carboxylic Acid] gave an inhibition at 1 µM in experiment [1] (10^-6 M) of 78%. Moreover, the inhibition at 0.1 µM in experiment [1] (10^-7 M) was 46%. Moreover, the inhibition in vivo at 1 mg/kg in experiment [2] (1 mg/kg p.o.) was under 50%.

For the molecule `CCCOc1nc2cccc(C(=O)O)c2n1Cc1ccc(-c2ccccc2-c2nc(=O)o[nH]2)cc1` [Example 36, 1-[[2'-(2,5-Dihydro-5-oxo-1,2,4-oxadiazol-3-yl)biphenyl-4-yl]methyl]-2-propoxybenzimidazole-7-carboxylic acid], the inhibition at 1 µM in experiment [1] (10^-6 M) is 60%. For the same molecule, the inhibition at 0.1 µM in experiment [1] (10^-7 M) stood at 18%. In addition, the inhibition in vivo at 1 mg/kg in experiment [2] (1 mg/kg p.o.) was over 70%.

`CCCc1nc2cccc(C(=O)O)c2n1Cc1ccc(-c2ccccc2-c2nc(=O)o[nH]2)cc1` [Example 30, 1-[[2'-(2,5-Dihydro-5-oxo-1,2,4-oxadiazol-3-yl)biphenyl-4-yl]methyl]-2-propylbenzimidazole-7-carboxylic Acid] came in with an inhibition at 1 µM in experiment [1] (10^-6 M) of 77%. This molecule also came in with an inhibition at 0.1 µM in experiment [1] (10^-7 M) of 35%. In addition, the inhibition in vivo at 1 mg/kg in experiment [2] (1 mg/kg p.o.) is over 70%.

In experiment [1] (10^-6 M), `CCCOc1nc2c(C)sc(C(=O)O)c2n1Cc1ccc(-c2ccccc2-c2nc(=O)o[nH]2)cc1` [Example 11, 1-[2'-(2,5-Dihydro-5-oxo-1,2,4-oxadiazol-3-yl)biphenyl-4-yl]methyl-4-methyl-2-n-propoxythieno[3,4-d]imidazole-6-carboxylic Acid] displayed an inhibition at 1 µM of 41%. Also, the inhibition in vivo at 1 mg/kg in experiment [2] (1 mg/kg p.o.) was over 70%.

For the molecule `CNCC(=O)N[C@@H](CCCN=C(N)N)C(=O)N[C@H](C(=O)N[C@@H](Cc1ccc(O)cc1)C(=O)N[C@H](C(=O)N[C@@H](Cc1cnc[nH]1)C(=O)N1CCC[C@H]1C(=O)N[C@@H](C)C(=O)O)C(C)C)C(C)C` [saralasin], the “angiotensin II antagonist activity” value in experiment [3] was “potent”.

Consider `COc1nc2cccc(C(=O)O)c2n1Cc1ccc(-c2ccccc2-c2noc(=O)[nH]2)cc1` [Example 35, 1-[[2'-(2,5-Dihydro-5-oxo-1,2,4-oxadiazol-3-yl)biphenyl-4-yl]methyl]-2-methoxybenzimidazole-7-carboxylic acid], for which the inhibition at 1 µM in experiment [1] (10^-6 M) was determined as 79%. Further, testing at 0.1 µM in experiment [1] (10^-7 M) gave an inhibition of 38%. The inhibition in vivo at 1 mg/kg in experiment [2] (1 mg/kg p.o.) was over 70%.

The record behind these values is patent US5736555A, “Heterocyclic compounds and their use as angiotensin antagonists” (Takeda Chemical Industries, Ltd., priority 1991, dated 1998).
